According to ChEMBL document CHEMBL1201862, “PubChem BioAssay data set” (2004):
Calls of active or inactive are those of the source.

Columns and labels:
Cytochrome P450 3A4 = Cytochrome P450 3A4 (Homo sapiens, UniProt P08684); conditions: Potency;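 note: confirmatory qHTS run detecting inhibitors and substrates of CYP3A4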
Nonstructural protein 1 = Nonstructural protein 1 (Influenza A virus, UniProt Q194T2); format: functional, Influenza A virus (A/California/07/2009(H1N1))
[1] = Luminescence Cell-Based Dose Retest to Confirm Inhibitors of Cancer Stem Cells. [Related pubchem assays (depositor defined):AID2717, AID2721]; format: functional; conditions: Homo sapiens
[2] = Trypanosoma cruzi growth suppression in host cells – NIH3T3 host cells, beta-gal luminescence, confirmation (AID 2044); format: functional, cell-based;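 note: intracellular parasites grown in NIH/3T3 mouse fibroblasts as host cells; luminescent beta-galactosidase reporter signal from transgenic T. cruzi replicating inside host cells; inhibitors lower the luminescence signal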
[3] = A cytotoxicity screen of small molecule inhibitors of the PhoP region in Salmonella typhi identified in the primary screen. [Related pubchem assays: 1850, 1864, 1985 ]; format: functional
[4] = intracellular Trypanosoma cruzi inhibitors in host cells – cell-based, plate reader, cherry-pick samples, set 3, dose response (AID 651818); format: functional;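 note: compounds incubated with infected cells for about four days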
[5] = viability of uninfected HEp-2 cells – cell-based, HTS, cytotoxicity control for RSV inhibitor project, dose response (AID 2410); format: functional; conditions: human respiratory syncytial virus
Protein skinhead-1 = biological target: T1, Protein skinhead-1 (Caenorhabditis elegans, UniProt P34707); format: functional
T1 sequence (P34707 whole entry): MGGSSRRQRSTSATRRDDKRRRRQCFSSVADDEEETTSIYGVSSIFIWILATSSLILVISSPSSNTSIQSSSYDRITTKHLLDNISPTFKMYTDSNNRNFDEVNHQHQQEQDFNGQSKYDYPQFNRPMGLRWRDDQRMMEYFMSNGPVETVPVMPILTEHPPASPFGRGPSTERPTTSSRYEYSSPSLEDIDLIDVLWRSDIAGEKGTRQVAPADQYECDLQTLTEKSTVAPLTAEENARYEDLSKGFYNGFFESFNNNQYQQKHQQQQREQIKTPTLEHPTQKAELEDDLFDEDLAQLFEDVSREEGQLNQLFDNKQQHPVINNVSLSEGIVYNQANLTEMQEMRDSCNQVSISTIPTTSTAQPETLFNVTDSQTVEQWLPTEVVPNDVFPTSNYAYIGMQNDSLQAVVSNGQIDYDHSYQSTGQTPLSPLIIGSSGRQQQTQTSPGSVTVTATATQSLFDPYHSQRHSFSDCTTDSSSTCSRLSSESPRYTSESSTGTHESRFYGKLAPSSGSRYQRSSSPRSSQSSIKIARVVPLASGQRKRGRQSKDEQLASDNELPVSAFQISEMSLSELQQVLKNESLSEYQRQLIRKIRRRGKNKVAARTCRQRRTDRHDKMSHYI

[6] = biological target: Glyceraldehyde-3-phosphate dehydrogenase (Homo sapiens, UniProt P04406)
Glyceraldehyde-3-phosphate dehydrogenase, sequence (P04406 whole entry): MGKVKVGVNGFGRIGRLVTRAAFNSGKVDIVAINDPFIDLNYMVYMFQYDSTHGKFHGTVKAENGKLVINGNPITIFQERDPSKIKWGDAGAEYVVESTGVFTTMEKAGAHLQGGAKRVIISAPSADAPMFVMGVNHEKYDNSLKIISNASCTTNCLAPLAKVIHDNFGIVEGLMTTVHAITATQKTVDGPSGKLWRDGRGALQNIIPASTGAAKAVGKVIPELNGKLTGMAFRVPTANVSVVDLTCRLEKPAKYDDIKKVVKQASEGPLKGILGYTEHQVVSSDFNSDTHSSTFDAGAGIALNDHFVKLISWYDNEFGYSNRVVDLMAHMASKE

Vero = test: viability of Vero cells under compound – cytotoxicity control for flavivirus capping enzyme inhibitors (AID 588742); format: functional; conditions: Chlorocebus sabaeus
Genome polyprotein = Genome polyprotein (dengue virus type 2, UniProt P29990); test: flavivirus cap methylation enzyme inhibition – biochemical, confirmation dose response, primary screen (AID 588689); format: functional
Genome polyprotein, sequence (P29990 2492-3391 limits assumed): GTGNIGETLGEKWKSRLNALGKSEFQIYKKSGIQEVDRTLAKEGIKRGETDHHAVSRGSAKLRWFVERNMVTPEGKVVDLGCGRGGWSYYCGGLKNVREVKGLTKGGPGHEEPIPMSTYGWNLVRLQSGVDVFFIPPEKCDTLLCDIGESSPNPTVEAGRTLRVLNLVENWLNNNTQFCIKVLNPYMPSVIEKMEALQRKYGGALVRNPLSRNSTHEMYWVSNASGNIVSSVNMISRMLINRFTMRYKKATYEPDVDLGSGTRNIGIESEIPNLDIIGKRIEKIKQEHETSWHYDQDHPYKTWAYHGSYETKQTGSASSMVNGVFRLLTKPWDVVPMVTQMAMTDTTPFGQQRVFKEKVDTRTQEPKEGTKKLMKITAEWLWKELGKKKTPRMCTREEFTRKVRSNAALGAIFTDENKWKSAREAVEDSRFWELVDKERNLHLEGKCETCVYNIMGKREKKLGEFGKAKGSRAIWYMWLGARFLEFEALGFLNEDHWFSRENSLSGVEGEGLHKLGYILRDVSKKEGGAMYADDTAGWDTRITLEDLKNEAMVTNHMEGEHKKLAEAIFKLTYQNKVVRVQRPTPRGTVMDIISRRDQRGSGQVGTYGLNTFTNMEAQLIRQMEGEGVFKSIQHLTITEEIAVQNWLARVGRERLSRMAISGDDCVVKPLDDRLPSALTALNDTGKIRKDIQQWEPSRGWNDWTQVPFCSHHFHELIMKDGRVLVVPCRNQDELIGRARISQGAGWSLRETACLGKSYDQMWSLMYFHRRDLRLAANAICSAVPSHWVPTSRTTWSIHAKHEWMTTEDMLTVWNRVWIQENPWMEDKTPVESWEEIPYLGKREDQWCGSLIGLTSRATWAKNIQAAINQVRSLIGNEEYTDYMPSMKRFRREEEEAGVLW

[7] = blockers of HIV-1 envelope-mediated cell-cell fusion – cherry-pick, dose response (AID 652057); format: functional, cell-based
[8] = viability loss in CEM21 cells – cell-based, CellTiter-Glo luminescence, cherry-picked, cytotoxicity control for viral fusion inhibitor project, dose response (AID 652042); format: functional;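 note: potency for signal decrease meaning cytotoxicity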
[9] = biological target: Induced myeloid leukemia cell differentiation protein Mcl-1 (Homo sapiens, UniProt Q07820); format: functional
Induced myeloid leukemia cell differentiation protein Mcl-1, sequence (Q07820 whole entry): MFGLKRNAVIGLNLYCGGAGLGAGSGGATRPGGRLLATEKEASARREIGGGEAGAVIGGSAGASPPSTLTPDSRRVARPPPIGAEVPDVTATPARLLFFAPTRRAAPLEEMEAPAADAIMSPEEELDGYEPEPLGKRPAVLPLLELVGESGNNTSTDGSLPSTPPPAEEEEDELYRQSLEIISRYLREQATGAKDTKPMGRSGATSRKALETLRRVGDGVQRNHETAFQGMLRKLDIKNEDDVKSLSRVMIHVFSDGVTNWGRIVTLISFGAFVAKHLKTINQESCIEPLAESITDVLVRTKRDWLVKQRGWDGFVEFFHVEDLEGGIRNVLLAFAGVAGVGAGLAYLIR

[10] = HEK-293T viability loss after treatment – luminescence, T-cell screen hits, cytotoxicity control for TCR NF-kB inhibitor project, dose response (AID 489026); format: functional, cell-based;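 note: cells exposed to compound about 14 hours before the viability readout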
[11] = blockers of HIV-1 ZM109 envelope-driven cell-cell fusion – HeLa effector, CEM target cells, luciferase, cherry-pick, dose response (AID 652058); format: functional, cell-based;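 note: luciferase signal from HIV-1 Env mediated cell-cell fusion of effector and target cells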
[12] = HIV-1 AD8 envelope cell-cell fusion blockers – cherry-pick, dose response (AID 652062); format: functional, cell-based;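 note: luciferase signal from cell-cell fusion driven by HIV-1 clade B AD8 Env; potency is for inhibitors of fusion seen as a drop in luminescence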
[13] = biological target: T2, Calpain-2 catalytic subunit (Sus scrofa, UniProt P43367); test: m-calpain protease blockers, concentration series – biochemical, fluorogenic peptide substrate, dose response (AID 1420); format: functional
T2 sequence (P43367 whole entry): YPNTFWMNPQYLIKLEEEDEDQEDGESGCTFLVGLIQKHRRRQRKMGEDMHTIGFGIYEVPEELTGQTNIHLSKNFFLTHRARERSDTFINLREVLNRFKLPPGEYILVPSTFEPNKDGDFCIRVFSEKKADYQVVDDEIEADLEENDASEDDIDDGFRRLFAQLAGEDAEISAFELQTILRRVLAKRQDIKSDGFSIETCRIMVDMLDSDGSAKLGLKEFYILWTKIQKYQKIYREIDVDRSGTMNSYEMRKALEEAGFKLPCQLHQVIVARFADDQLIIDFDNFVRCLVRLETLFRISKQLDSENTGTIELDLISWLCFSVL

Leucine aminopeptidase = biological target: T3, Leucine aminopeptidase (Plasmodium falciparum 3D7, UniProt Q8IL11); test: P. falciparum M17LAP inhibitors, primary screen, biochemical, fluorogenic H-Leu-NHMec substrate, 1536-well (AID 1619); format: functional
T3 sequence (Q8IL11 whole entry): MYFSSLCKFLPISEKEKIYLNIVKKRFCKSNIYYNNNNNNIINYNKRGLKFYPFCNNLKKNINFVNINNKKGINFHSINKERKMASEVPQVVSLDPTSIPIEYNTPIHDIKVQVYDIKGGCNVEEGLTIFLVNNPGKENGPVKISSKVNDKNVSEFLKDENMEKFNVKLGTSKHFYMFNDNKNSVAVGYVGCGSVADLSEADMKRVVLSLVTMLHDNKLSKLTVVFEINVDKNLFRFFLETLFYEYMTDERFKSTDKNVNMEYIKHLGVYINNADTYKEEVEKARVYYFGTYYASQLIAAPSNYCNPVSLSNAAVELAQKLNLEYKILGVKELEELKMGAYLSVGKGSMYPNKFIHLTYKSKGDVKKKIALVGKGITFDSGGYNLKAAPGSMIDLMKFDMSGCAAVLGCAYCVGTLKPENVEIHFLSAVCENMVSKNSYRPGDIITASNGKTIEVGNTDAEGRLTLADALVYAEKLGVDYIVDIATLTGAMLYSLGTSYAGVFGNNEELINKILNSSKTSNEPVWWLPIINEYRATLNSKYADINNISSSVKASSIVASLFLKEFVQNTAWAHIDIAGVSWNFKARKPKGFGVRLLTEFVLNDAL

Nonstructural protein 1, sequence (Q194T2 whole entry): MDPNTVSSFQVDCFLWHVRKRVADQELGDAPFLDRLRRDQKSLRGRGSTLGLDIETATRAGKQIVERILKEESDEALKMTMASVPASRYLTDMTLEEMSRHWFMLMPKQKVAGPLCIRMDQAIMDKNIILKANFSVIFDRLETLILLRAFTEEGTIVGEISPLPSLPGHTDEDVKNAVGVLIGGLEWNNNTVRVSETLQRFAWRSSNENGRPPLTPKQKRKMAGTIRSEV
Cytochrome P450 3A4, sequence (P08684 whole entry): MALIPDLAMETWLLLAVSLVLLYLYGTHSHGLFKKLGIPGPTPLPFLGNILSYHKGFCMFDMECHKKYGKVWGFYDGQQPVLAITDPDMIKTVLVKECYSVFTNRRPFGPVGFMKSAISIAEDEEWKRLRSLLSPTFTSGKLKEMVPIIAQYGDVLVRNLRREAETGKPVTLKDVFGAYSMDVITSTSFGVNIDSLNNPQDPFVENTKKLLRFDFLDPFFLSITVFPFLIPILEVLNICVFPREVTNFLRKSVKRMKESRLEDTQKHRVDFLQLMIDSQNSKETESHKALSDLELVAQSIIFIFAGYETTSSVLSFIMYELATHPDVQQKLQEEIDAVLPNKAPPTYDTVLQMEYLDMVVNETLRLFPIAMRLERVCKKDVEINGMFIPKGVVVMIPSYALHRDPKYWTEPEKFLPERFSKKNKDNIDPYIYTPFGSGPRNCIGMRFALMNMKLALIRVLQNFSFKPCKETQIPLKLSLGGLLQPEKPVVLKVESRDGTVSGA

Oc1ccccc1O [CATECHOL]
AC50 (Cytochrome P450 3A4): 10 µM (inconclusive)

Cc1ccccc1N=C(S)N(CCN(C)C)C(C)c1ccccn1 (stereo not drawn)
IC50 (Nonstructural protein 1): 64.5 µM (active)

CC(C)N1C(=O)/C(=C\c2nc3ccccc3c(=O)n2-c2ccccc2)c2ccccc21
AC50 [1]: 8.71 µM (active)
IC50 (Nonstructural protein 1): 50.5 µM (active)
EC50 [2]: 1.36 µM (active)

O=C1CSC(=S)N1c1cccc(O)c1
EC50 [3]: > 50 µM (active)

C[C@@H]1CN([C@@H](C)CO)C(=O)c2cccc(NC(=O)Nc3ccc4c(c3)OCO4)c2O[C@@H]1CN(C)Cc1ccc(C(=O)Nc2ccccc2N)cc1
AC50 [4]: 3.18 µM (active)

C[C@@H]1CCCCO[C@H](CN(C)Cc2ccc(C(=O)Nc3ccccc3N)cc2)[C@@H](C)CN([C@H](C)CO)C(=O)c2cc(NS(=O)(=O)c3ccc(F)cc3)ccc2O1
AC50 [4]: 1.83 µM (active)

Cc1ccc(-c2cc(C(F)F)n3ncc(C(=O)N4CCN(c5cccc(C)c5C)CC4)c3n2)cc1
CC50 [5]: 10.2 µM (active)
IC50 (Protein skinhead-1): > 100 µM (inactive)

Cc1ccc(SCC(=O)Nc2nnc[nH]2)cc1
IC50 [6]: > 10 µM (inconclusive)

COc1ccc(-c2cc(C(F)(F)F)c3c(=O)n(-c4ccccc4)[nH]c3n2)cc1
CC50 (Vero): > 40 µM (active)
IC50 (Genome polyprotein): 44.2 µM (active)

CC(C)C#Cc1ccc2c(c1)O[C@@H](CN(C)C(=O)C1CCCCC1)[C@H](C)CN([C@H](C)CO)S2(=O)=O
AC50 [7]: 21.2 µM (active)
AC50 [8]: 21.3 µM (active)

CNC[C@H]1Oc2c(NC(=O)Nc3ccc(OC)cc3)cccc2C(=O)N([C@H](C)CO)C[C@@H]1C
AC50 [4]: 20 µM (inactive)

COCCN1Cc2cccc(C(=O)Nc3cccc(C)c3C)c2C1=O
IC50 [9]: 6.79 µM (not active)

C/C=C(\C)C(=O)N[C@@H](c1ccccc1)[C@@H](O)C(=O)O[C@H]1C[C@@]2(O)[C@@H](OC(=O)c3ccccc3)C3[C@](C)(C(=O)[C@H](OC(C)=O)C(=C1C)C2(C)C)[C@@H](O)C[C@H]1OC[C@@]31OC(C)=O (stereo partly drawn)
IC50 [10]: > 80 µM (inactive)

COC(=O)c1ccc(NC(=O)CO/N=C2\CCCc3nonc32)cc1
EC50 [3]: > 50 µM (active)

CO[C@@H](CN(C)S(=O)(=O)c1ccc(Cl)cc1)[C@H](C)CN([C@@H](C)CO)S(=O)(=O)c1cccc(Cl)c1
AC50 [11]: 19.1 µM (active)
AC50 [7]: 20 µM (active)
AC50 [12]: 8.73 µM (active)

C[C@@H]1CN([C@H](C)CO)C(=O)Cc2cc(NC(=O)Nc3ccc4c(c3)OCO4)ccc2O[C@@H]1CN(C)Cc1ccc(Oc2ccccc2)cc1
AC50 [4]: 2.87 µM (active)

Nc1ccc(C2=Nc3cccc4cccc(c34)N2)cc1
IC50 [9]: 2.86 µM (active)

OC(c1ccccn1)(c1ccccn1)c1ccccn1
IC50 (Nonstructural protein 1): 10.9 µM (active)

Cn1c(NC(=O)/C=C\c2ccccc2)cc(=O)n(C)c1=O
IC50 [13]: 7.1 µM (not active)
IC50 (Leucine aminopeptidase): 78.4 µM (active)

C[C@@H]1CN([C@@H](C)CO)C(=O)c2cccc(NC(=O)Nc3ccc(C(F)(F)F)cc3)c2O[C@@H]1CN(C)Cc1ccc(C(=O)Nc2ccccc2N)cc1
AC50 [4]: 0.787 µM (active)
